Series [1] can be described thus: Cytotoxicity (MTT) in B95-8 cells. It is filed as cell-based, cotton-top tamarin (Saguinus oedipus). The settings on record: cotton-top tamarin (Saguinus oedipus). The method, then:
(§1) In each virus–cell system, cytotoxicity ranges were determined for polyphenols and reference compounds using MTT assay. Half-maximal cytotoxic concentrations (CC50) were determined from the curves of the dependence of the proportion of cells retaining viability after incubation with the compound (relative to the number of cells incubated in the absence of the compound) on its concentration, using nonlinear regression equations (4 parameters).
(§2) To assess cytotoxicity, B95-8 cells (5 × 10^5 per 1 mL) were incubated with polyphenols at 37 °C in an atmosphere of 5% CO2 for 72 h. The experiment was then carried out as described in Section 4.3.5.

A further series has as its system EBVB95-8. Description: Inhibition of EBV replication in B95-8 cells (EBV genomic DNA, real-time PCR). In kind it is cell-based, Epstein–Barr virus. The settings on record: human gammaherpesvirus 4, B-95-8, 48 h, read-out: IC50, Inhibition on EBV Replication. For orientation: In qPCR the cycle at which signal appears reflects the starting amount.
Series [2] in a line: in vitro. Conditions: human.
In series [3] the test system is CMV (strain AD169). Description: Anti-CMV, post-inoculation setup: inhibition of intracellular replication (cells stained for viral proteins) in HELF. In kind it is cell-based, human cytomegalovirus. Conditions: Human betaherpesvirus 5; post-inoculation setup, CMV AD169 in HELF.
The test system of series [4] is CMV (strain AD169). Description: Anti-CMV, pre-inoculation setup (plaques) in HELF. It is filed as cell-based, human cytomegalovirus. The settings on record: pre-inoculation setup.
Series [5] relates to CMV (strain AD169). Description: Anti-CMV, post-inoculation setup: inhibition of infectious virus production (plaques from conditioned medium) in HELF. The settings on record: Human betaherpesvirus 5; post-inoculation setup, CMV AD169 in HELF. In kind it is cell-based, human cytomegalovirus.
The nature of series [6]: in vitro. The settings on record: human. The source holds these as a separate data set.
A further series relates to HIV-1 (HIVIIIB). Description: microbe, parasite or virus in culture. The settings on record: Human immunodeficiency virus 1, MT4; HIV-1 IIIB in MT-4 cells. It is filed as cell-based.
Series [7] in a line: in vitro. The settings on record: dog.
Series [8] concerns influenza A virus/California/07/2009 (H1N1) pdm. Description: microbe, parasite or virus in culture. In kind it is cell-based. The settings on record: for IC50: IAV H1N1pdm in MDCK cells.
The subject of the next series is HSV-2BH. Description: Antiviral activity in Vero E6 cells infected with HSV-2 (cytopathic effect). In kind it is cell-based. A general note: Damage to the host cells serves as the signal in cytopathic effect assays.
The next series deals with B95-8 cells. Description: Cytotoxicity (MTT) in B95-8 cells. It is filed as cell-based, cotton-top tamarin (Saguinus oedipus). Conditions: B95-8 cells, MTT, 72 h. Here is the method:
as §1, §2

Another series concerns MDCK cells. Conditions: MTT.
The subject of a further series is HSV-1L2. Description: Antiviral activity in Vero E6 cells infected with HSV-1 (cytopathic effect). In kind it is cell-based.
Another series relates to Vero E6 cells. Description: Cytotoxicity (MTT) in Vero E6 cells (HSV system). In kind it is cell-based.

≈ marks a conversion by molar mass, not a printed value. Like-named read-outs stand apart in the source and are kept apart here. Where only a bound is given, the exact number is not on record here.

Regarding `Nc1nc(O)c2ncn(COC(CO)CO)c2n1` [Ganciclovir, reference compound], the CC50 at 72 h in series [1] was greater than 1000 µg/mL; in the series “in vitro [2]” it was 185 µg/mL (≈ 725 µM). The IC50 – broadly, the concentration that gives 50% inhibition – in the series with EBVB95-8 was 100 µg/mL (≈ 392 µM); in the series on CMV (strain AD169) [3] it was 0.22 µg/mL (≈ 0.862 µM); with CMV (strain AD169) [5], less than 0.1 µg/mL. Also, the “SI, Pre-Inoculation Setup” value with CMV (strain AD169) [4] (CC50/IC50) is given as “No activity”. The “IC50, Pre-Inoculation Setup” value in the series with CMV (strain AD169) [4] (CMV AD169 in HELF) was “No activity”.
In turn, `Cc1cn([C@H]2C[C@H](N=[N+]=[N-])[C@@H](CO)O2)c(=O)[nH]c1=O` [Azidothymidine, reference compound] yielded a CC50 in the series “in vitro [6]” of 3.6 µg/mL (≈ 13.5 µM). Moreover, in the series with HIV-1 (HIVIIIB), half-maximal inhibition (IC50) required 0.002 µg/mL (≈ 0.00748 µM).
With `CCOC(=O)C1=C[C@@H](OC(CC)CC)[C@H](NC(C)=O)[C@@H](N)C1` [Oseltamivir, reference compound], in “in vitro [7]”, the CC50 is greater than 10 µg/mL. The “Δ(lgTCID50)max” value in series [8] is given as 6.0. In addition, the IC50 in [8] (Influenza A virus, H1N1, read-out: IC50) was 0.02 µg/mL (≈ 0.064 µM).
Turning to “2,4-bis-O-galloyl-1,3,6-tri-O-galloyl-β-D-glucose [R7]”, the IC50 stood at 8.32 µg/mL with HSV-2BH, 5.95 µg/mL with HSV-1L2 and 2.13 µg/mL in series [8]. Moreover, the IC95 – broadly, the concentration needed for an effect of 95% – was found to be 31.25 µg/mL with HSV-2BH and 8.32 µg/mL with HSV-1L2. Further, the CC50 with B95-8 cells amounted to 33 µg/mL; with MDCK cells, 191.01 µg/mL; with Vero E6 cells it was 165.00 µg/mL. Further, the “Δ(lgTCID50)max” value in [8] was found to be 2.75.
In the case of `O=C(OC[C@H]1O[C@@H](OC(=O)c2cc(O)c(O)c(O)c2)[C@H](OC(=O)c2cc(O)c(O)c(OC(=O)c3cc(O)c(O)c(O)c3)c2)[C@@H](OC(=O)c2cc(O)c(O)c(OC(=O)c3cc(O)c(O)c(O)c3)c2)[C@@H]1OC(=O)c1cc(O)c(O)c(OC(=O)c2cc(O)c(O)c(O)c2)c1)c1cc(O)c(O)c(O)c1` [R8, 2,3,4-bis-O-galloyl-1,6-di-O-galloyl-β-D-glucose], the IC50 worked out at 31.25 µg/mL (≈ 22.4 µM) in the series with HSV-2BH (HSV-2BH, Vero E6, 0.1 PFU/cell); 10.0 µg/mL (≈ 7.16 µM) in the series on HSV-1L2 (HSV-1L2, Vero E6, 0.1 PFU/cell); 0.8 µg/mL (≈ 0.573 µM) in [8]. In addition, the IC95 in the series on HSV-2BH (HSV-2BH, Vero E6, 0.1 PFU/cell) was 62.5 µg/mL (≈ 44.7 µM); in the series with HSV-1L2 (HSV-1L2, Vero E6, 0.1 PFU/cell) it was 31.25 µg/mL (≈ 22.4 µM). Besides, the CC50 with B95-8 cells was greater than 20 µg/mL; with MDCK cells it was 233 µg/mL (≈ 167 µM); with Vero E6 cells, 106.00 µg/mL (≈ 75.9 µM). Besides, the “Δ(lgTCID50)max” value in series [8] is listed as 4.25.

Source of the values: publication PMC12607321, “Sumac Polyphenols as Pan-Herpesvirus Inhibitors” (International Journal of Molecular Sciences, 2025).
